Converted amounts (≈) assume the structure as drawn.
Tests used:
[1] = test system: Mouse mammary cancer SC-4; test: Anti-tumor activity against mouse mammary cancer SC-4 in BALB/c nu/nu nude mice; assay type: in vivo; settings: once a day, five days after start
Experimental: Mouse mammary cancer SC-4 (8 mm^3) was subcutaneously implanted into BALB/c nu/nu nude mice (5-weeks-old, male) at ventral side using a trockar.
After the volume of the tumor reached 100-300 mm^3, UCA1064-B was subcutaneously administered near the tumor at a dose of 15 mg/kg once a day for 4 days. UCA1064-B was administered in the form of a suspension, which was prepared by triturating 10 mg of UCA1064-B with 20 μl of Tween 80 and then suspending the compound in 0.3% carboxymethyl cellulose (CMC).
For comparison, 100 mg/kg of cortisone was subcutaneously administered once a day for 5 days in a similar manner.
Five days after the start of administration, the anti-tumor activity was determined as T/C (T: the volume of the tumor of the test group, C: the volume of the tumor of the control group).

Solubility = assay type: physicochemical
BALB 3T3/H-ras cells = test: Growth inhibition against BALB 3T3 cells transformed by the oncogene H-ras (Giemsa staining); assay type: cell-based
Experimental: (B) Growth Inhibition Against BALB 3T3 Cells Transformed by the Oncogene H-Ras (Hereinafter Referred to as BALB 3T3/H-Ras Cells)
A BALB 3T3/H-ras cell suspension (3×10^4 cells/ml) prepared by suspending BALB 3T3/H-ras cells in a medium comprising DME medium (Nissui Pharmaceutical Co, Ltd.) and 10% fetal calf serum (hereinafter referred to as Medium A) was put into wells of a 96-well microtiter plate in an amount of 0.1 ml per well. After the plate was incubated at 37° C. for 20 hours in a CO2 -incubator, 0.1 ml of a sample of UCA1064-B appropriately diluted with Medium A was added to each well. The cells were further incubated at 37° C. for 72 hours in the CO2 -incubator. After the culture supernatant was removed, the residue was washed once with physiological saline and then treated with 0.1 ml of methanol for 10 minutes to fix the cells. […] After the staining solution was removed, the residue was washed once with 0.2 ml of water. Then, the dye was extracted with 0.2 ml of 0.1N hydrochloric acid and absorbance was measured at 620 nm with a microplate reader.

[2] = test system: Salmonella typhi ATCC9992; test: Antibacterial and antifungal activity, agar dilution method; assay type: cell-based; settings: Salmonella enterica, pH 7, read-out: Minimum Inhibitory Concentration (MIC)
Experimental: (§1) The minimum inhibitory concentration (MIC) of UCA1064-B against various bacteria and fungi was determined by the agar dilution method using a medium (pH 7) prepared by dissolving 3 g of Bacto-Tryptone (Difco Laboratories), 3 g of meat extract, 1 g of yeast extract, 1 g of glucose and 16 g of agar in 1 liter of water.

[3] = test system: Klebsiella pneumoniae ATCC10031; test: as above; assay type: cell-based; settings: pH 7, read-out: Minimum Inhibitory Concentration (MIC)
Experimental: as §1

[4] = test system: Bacillus subtilis No. 10707; test: as above; assay type: cell-based; settings: pH 7, read-out: Minimum Inhibitory Concentration (MIC)
Experimental: as §1

[5] = test system: Staphylococcus aureus ATCC6538P; test: as above; assay type: cell-based; settings: pH 7, read-out: Minimum Inhibitory Concentration (MIC)
Experimental: as §1

[6] = test system: Enterococcus faecium ATCC10541; test: as above; assay type: cell-based; settings: pH 7, read-out: Minimum Inhibitory Concentration (MIC)
Experimental: as §1

Candida krusei MTU12041 = test: as above; assay type: cell-based; settings: Pichia kudriavzevii, pH 7, read-out: Minimum Inhibitory Concentration (MIC)
Experimental: as §1

[7] = test system: Saccharomyces cerevisiae MTU09001; test: as above; assay type: cell-based; settings: pH 7, read-out: Minimum Inhibitory Concentration (MIC)
Experimental: as §1

Compound	T/C (tumor volume of test group / control group) ([1]; 100 mg/kg × 5, subcutaneous, **P < 0.05 (Mann-Whitney U test))	Solubility (Solubility; alcohol, acetone, ethyl acetate and chloroform)	Solubility (Solubility; water and hexane)	T/C (tumor volume of test group / control group) ([1]; 15 mg/kg × 4, subcutaneous near the tumor, *P < 0.01 (Mann-Whitney U test))	IC50 (BALB 3T3/H-ras cells; Mus musculus, BALB/3T3, 72 hours, 37° C.) [µg/mL]	growth of cancer cells (conclusion in words) (BALB 3T3/H-ras cells; summary of the results shown (Tables 2 and 3))	MIC [2] [µg/mL]	MIC [3] [µg/mL]	MIC [4] [µg/mL]	MIC [5] [µg/mL]	MIC [6] [µg/mL]	MIC (Candida krusei MTU12041) [µg/mL]	MIC [7] [µg/mL]
C[C@]12CCC(=O)C=C1CC[C@@H]1[C@@H]2C(=O)C[C@@]2(C)[C@H]1CC[C@]2(O)C(=O)CO [Cortisone, reference compound]	0.39	–	–	–	–	–	–	–	–	–	–	–	–
CC(C)C(C)CCC(C)C1CCN=C2C3=C(CCC21C)C1(C)CCC(O)CC1CC3 (stereo not shown) [UCA1064-B]	–	soluble in alcohol, acetone, ethyl acetate and chloroform	insoluble in water and hexane	0.49	3.5 (≈ 8.46 µM)	inhibits the growth of cancer cells	> 100	> 100	20 (≈ 48.3 µM)	20 (≈ 48.3 µM)	40 (≈ 96.7 µM)	0.78 (≈ 1.89 µM)	0.39 (≈ 0.943 µM)

From patent US5236929A, “Compound UCA1064-B” (Kyowa Hakko Kogyo Co., Ltd., priority 1991, dated 1993)
